Columns and labels:
[1] = target: LBD of chemoreceptor R4 (WP_158281851.1) (Rivihabitans pingtungensis, UniProt A0A318KJN4); assay: ITC binding to R4-LBD; set-up: species or system Rivicola pingtungensis; conditions: 20 °C, Nb = no binding
Protocol: (§1) Plasmids for the overexpression of the different proteins were transformed into E. coli BL21(DE3). The resulting strains were grown under continuous stirring (200 rpm) at 30 °C in 2-L Erlenmeyer flasks containing 500 mL of LB medium supplemented with 50 μg/mL kanamycin. At an OD660 of 0.5, protein expression was induced by the addition of 0.1 mM isopropyl β-D-1-thiogalactopyranoside. Growth was continued at 16 °C overnight prior to cell harvesting by centrifugation at 10,000 × g for 20 min. Cell pellets were resuspended in buffer A (Additional file 2: Table S4) and subsequently broken by French press treatment at 62.5 lb/in^2. After centrifugation at 20,000 × g for 30 min, the supernatants were loaded onto 5-mL HisTrap HP columns (Amersham Biosciences) equilibrated with buffer A, and the proteins were eluted with a linear gradient of buffer B (Additional file 2: Table S4). All proteins contain a hexa-histidine tag at the N-terminal extension (Additional file 2: Table S3) and were purified at 4 °C. The purified proteins were dialyzed overnight into the corresponding analysis buffers (Additional file 2: Table S4) for immediate analysis.
(§2) All experiments were conducted on a VP microcalorimeter (Microcal, MA) at 15 °C for PacP-LBD and at 20 °C for the remaining proteins. Proteins were dialyzed into the analysis buffers specified in Additional file 2: Table S4, placed into the sample cell and titrated with aliquots of ligand solutions (1 to 10 mM) freshly prepared in dialysis buffer. The mean enthalpies measured from the injection of the ligands into the analysis buffer were subtracted from the raw titration data prior to data analysis with the MicroCal version of ORIGIN. The data were fitted with the “One binding site model” of ORIGIN.

[2] = test system: P. atrosepticum SCRI1043 ΔcheA; assay: Quantitative capillary chemotaxis assay, cheA mutant; assay type: cell-based, Pectobacterium atrosepticum; conditions: 1 mM ligand
Protocol: (§3) Overnight cultures of P. atrosepticum SCRI1043 were grown at 30 °C in minimal medium. At an OD660 of 0.4–0.45, the cultures were washed twice with chemotaxis buffer (50 mM K2HPO4/KH2PO4, 20 μM EDTA, 0.05% (v/v) glycerol, pH 7.0) and diluted to an OD660 of 0.1 in the same buffer. Subsequently, 230 μL of the resulting bacterial suspension was placed into the wells of 96-well plates. One-microliter capillary tubes (P1424, Microcaps; Drummond Scientific) were heat-sealed at one end and filled with either chemotaxis buffer (negative control) or chemotaxis buffer containing PacP ligands at a concentration of 1 mM. The capillaries were immersed in the bacterial suspensions at their open ends. After 30 min at room temperature, the capillaries were removed from the bacterial suspensions, rinsed with sterile water, and the contents were expelled into 1 mL of 40 mM K2HPO4, 15 mM KH2PO4. Serial dilutions were plated onto minimal medium supplemented with 15 mM glucose as the carbon source. The number of colony-forming units was determined after 36 h of incubation at 30 °C. In all the cases, the data were corrected with the number of cells that swam into the buffer-containing capillaries.
Fig. S2) Quantitative capillary chemotaxis assays of different P. atrosepticum SCRI1043 strains to 1 mM Glycerol 3-phosphate (A) and 3-phosphoglycerate (B). […]

[3] = target: LBD of chemoreceptor R10 (WP_028866120.1); assay: ITC binding to R10-LBD; set-up: species or system Psychromonas aquimarina; conditions: 20 °C, Nb = no binding
Protocol: as §1, §2

P. atrosepticum SCRI1043 = assay: Quantitative capillary chemotaxis assay, wild type; assay type: cell-based, Pectobacterium atrosepticum; conditions: wild type SCRI1043, 1 mM ligand, 30 min
Protocol: as §3

[4] = test system: Pectobacterium atrosepticum SCRI1043; assay: Growth experiment, sole phosphorus source; assay type: cell-based; conditions: PFM9 minimal medium, 5 mM ligand, 30 °C, 48 h
Protocol: P. atrosepticum SCRI1043 was cultured overnight in phosphate-free M9-based medium (PFM9) supplemented with 20 mM glucose as the carbon source and 500 µM inorganic phosphate as the phosphate source. Cultures were washed and then diluted to an OD600 of 0.02 in PFM9 supplemented with different PacP ligands as the sole carbon or phosphorous source at a final concentration of 5 mM. Subsequently, 200 µL aliquots of these cultures were transferred into microwell plates, which were subsequently grown at 30 °C on a Bioscreen microbiological growth analyzer (Oy Growth Curves Ab Ltd., Helsinki, Finland) for 48 h.

[5] = test system: Bdellovibrio bacteriovorus; set-up: method as in PMID 119030, PMID 500565; conditions: cited from earlier work
[6] = target: LBD of chemoreceptor R7 (WP_019915375.1); assay: ITC binding to R7-LBD; set-up: species or system Methyloversatilis discipulorum; conditions: 20 °C, Nb = no binding
Protocol: as §1, §2

[7] = test system: ECA_RS12390-LBD (PacP-LBD); assay: Thermal shift ligand screening of PacP-LBD; assay type: binding, Pectobacterium atrosepticum; conditions: thermal shift assay, Biolog arrays PM1, PM2A, PM3B, PM4A
Protocol: Assays were carried out on a MyIQ2 Real-Time PCR instrument (Bio-Rad, Hercules, CA, USA). Ligand solutions were prepared by dissolving the array compounds in 50 µL of Milli-Q water, which, according to the manufacturer, corresponds to a concentration of 10–20 mM. Freshly purified proteins were dialyzed into analysis buffer (Additional file 2: Table S4). Compound arrays PM1, PM2A (carbon sources), PM3B (nitrogen sources), and PM4A (phosphorus and sulfur sources) from Biolog (https://www.biolog.com/) were used. The compositions of these arrays are provided in Additional file 2: Table S1. The experiments were conducted in 96-well plates, and each assay mixture contained 20 µL of the dialyzed protein (at 80–50 µM), 2 µL of 5 × SYPRO orange (Life Technologies, Eugene, Oregon, USA), and 2.5 µL of the resuspended array compound or the equivalent amount of buffer in the ligand-free control. The samples were heated from 23 to 85 °C at a scan rate of 1 °C/min. The protein unfolding curves were monitored by detecting changes in SYPRO® Orange fluorescence. The Tm values were determined from the first derivative values of the raw fluorescence data.

LBD of chemoreceptor R7 (WP_019915375.1), sequence (as listed by the source): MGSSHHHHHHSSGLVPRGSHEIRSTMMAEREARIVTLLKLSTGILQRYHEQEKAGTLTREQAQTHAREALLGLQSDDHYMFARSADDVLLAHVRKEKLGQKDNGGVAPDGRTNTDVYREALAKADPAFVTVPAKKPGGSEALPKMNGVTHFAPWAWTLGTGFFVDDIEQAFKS
LBD of chemoreceptor R4 (WP_158281851.1), sequence (A0A318KJN4 entry or part of it): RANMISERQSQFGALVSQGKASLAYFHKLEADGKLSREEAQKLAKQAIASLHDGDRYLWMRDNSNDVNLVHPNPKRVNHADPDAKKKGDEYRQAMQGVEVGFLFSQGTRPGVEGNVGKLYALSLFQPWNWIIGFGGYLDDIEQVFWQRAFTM

O=C(O)[C@@H](O)COP(=O)(O)O [3-phosphoglycerate]
Kd [1]: 926 ± 8 µM | chemotaxis (capillary assay) [2]: failed to respond | KD [3]: Nb | chemotaxis (capillary assay) (P. atrosepticum SCRI1043): significantly greater | growth as sole phosphorus source [4]: permitted growth | chemotaxis [5]: weak chemotaxis | KD [6]: Nb | Tm change with respect to the ligand-free protein [7]: significant increases in Tm

O=P(O)(O)OCC(O)CO (stereo not drawn) [glycerol 3-phosphate]
Kd [1]: 7 ± 0.2 µM | chemotaxis (capillary assay) [2]: failed to respond | KD [3]: Nb | chemotaxis (capillary assay) (P. atrosepticum SCRI1043): significantly greater | chemotaxis (capillary assay) (P. atrosepticum SCRI1043; listed as Glycerol 3-phosphate): strongest chemotaxis | growth as sole phosphorus source [4]: supported growth | chemotaxis [5]: weak chemotaxis | KD [6]: bound | KD ([6]; listed as Glycerol 3-P): Nb | Tm change with respect to the ligand-free protein [7]: significant increases in Tm

— paper PMC12395807, “Chemoreceptor family in plant-associated bacteria responds preferentially to the plant signal molecule glycerol 3-phosphate” (Genome Biology, 2025)
